Data as given in ChEMBL document CHEMBL5104182, “Design and Synthesis of a 2-Amino-pyridine Derivative as a Potent CDK8 Inhibitor for Anti-colorectal Cancer Therapy” (J Med Chem, 2022).

Columns and labels:
CT26 = experiment: Antiproliferative activity against […] cells assessed as cell viability incubated for 48 hrs by MTT assay; assay type: functional; settings: Mus musculus
HT-29 = experiment: Antiproliferative activity against human HT-29 cells assessed as cell viability incubated for 48 hrs by MTT assay; assay type: functional
SW480 = experiment: Antiproliferative activity against human SW480 cells assessed as cell viability incubated for 48 hrs by MTT assay; assay type: functional
HCT-116 = experiment: Antiproliferative activity against human HCT-116 cells assessed as cell viability incubated for 48 hrs by MTT assay; assay type: functional
[1] = Cytotoxicity against human GES1 cells assessed as cell viability incubated for 48 hrs by MTT assay; assay type: toxicity, cell-based
[2] = molecular target: T1, Cyclin-dependent kinase 8 (Homo sapiens, UniProt P49336); settings: dose 200.0 nM
T1 sequence (P49336 whole entry): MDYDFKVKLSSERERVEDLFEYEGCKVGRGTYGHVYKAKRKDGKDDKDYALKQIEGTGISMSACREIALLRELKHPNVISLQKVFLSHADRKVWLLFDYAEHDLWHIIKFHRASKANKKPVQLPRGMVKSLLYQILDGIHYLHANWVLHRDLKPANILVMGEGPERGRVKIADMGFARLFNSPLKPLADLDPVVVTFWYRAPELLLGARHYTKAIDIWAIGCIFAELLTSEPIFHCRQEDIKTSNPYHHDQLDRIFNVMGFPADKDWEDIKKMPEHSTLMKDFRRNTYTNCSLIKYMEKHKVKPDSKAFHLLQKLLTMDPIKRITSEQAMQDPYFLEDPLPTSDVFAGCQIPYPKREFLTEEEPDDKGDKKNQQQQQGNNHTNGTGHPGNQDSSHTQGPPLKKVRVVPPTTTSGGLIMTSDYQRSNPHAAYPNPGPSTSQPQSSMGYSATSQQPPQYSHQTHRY

[3] = molecular target: T1, Cyclin-dependent kinase 8; experiment: Inhibition of CDK8 (unknown origin) assessed as inhibition rate

Compound	GI50 (CT26)	GI50 (HT-29)	GI50 (SW480)	GI50 (HCT-116)	inhibition [2]	IC50 [3]	GI50 at 48 h [1]
Nc1ccc(Oc2cccc(NC(=O)Nc3ccccc3F)c2)cn1	83.1 µM	27.5 µM	43 µM	34.4 µM	–	–	43.6 µM
Cc1ccc(NC(=O)Nc2cccc(Oc3ccc(N)nc3)c2)cc1	> 100 µM	19 µM	> 100 µM	> 100 µM	–	–	> 100 µM
Cc1ccc(NC(=O)Nc2ccc(Oc3cnc4[nH]ccc4c3)cc2)cc1C(F)(F)F	55.2 µM	39.8 µM	30.1 µM	> 100 µM	–	–	24 µM
Nc1ccc(Oc2ccc(NC(=O)Nc3cccc(Cl)c3)cc2)cn1	> 100 µM	8.5 µM	13.2 µM	12.5 µM	–	–	65.5 µM
O=C(Nc1cccc(Oc2cnc3[nH]ccc3c2)c1)Nc1ccc(Cl)c(C(F)(F)F)c1	> 100 µM	100 µM	100 µM	53.2 µM	–	–	–
Cc1cccc(NC(=O)Nc2ccc(Oc3ccc(N)nc3)cc2)c1	> 100 µM	59.4 µM	12.5 µM	37.4 µM	–	–	> 100 µM
Nc1ccc(Oc2cccc(NC(=O)Nc3ccc(F)cc3)c2)cn1	52.3 µM	> 100 µM	10.9 µM	> 100 µM	–	–	> 100 µM
Nc1ccc(Oc2cccc(NC(=O)Nc3cccc(Br)c3)c2)cn1	44.5 µM	50 µM	29.6 µM	21.3 µM	–	–	> 100 µM
Nc1ccc(Oc2cccc(NC(=O)Nc3cccc(Cl)c3)c2)cn1	70.4 µM	36.1 µM	44.2 µM	29.7 µM	–	–	> 100 µM
Cc1ccc(NC(=O)Nc2cccc(Oc3ccc(N)nc3)c2)cc1Cl	> 100 µM	> 100 µM	> 100 µM	> 100 µM	–	–	> 100 µM
Cc1cccc(NC(=O)Nc2cccc(Oc3ccc(N)nc3)c2)c1	> 100 µM	41.5 µM	66.3 µM	26.6 µM	–	–	> 100 µM
Nc1ccc(Oc2ccc(NC(=O)Nc3cccc(Cl)c3Cl)cc2)cn1	88.2 µM	18.8 µM	77.5 µM	54.6 µM	–	–	> 100 µM
Nc1ccc(Oc2ccc(NC(=O)Nc3cccc(F)c3)cc2)cn1	66.7 µM	49.9 µM	45.2 µM	70.9 µM	–	–	> 100 µM
COc1cccc(NC(=O)Nc2ccc(Oc3ccc(N)nc3)cc2)c1	> 100 µM	9 µM	22.5 µM	20.4 µM	–	–	43.2 µM

Now those with a lower GI50 (CT26), led by results:

GI50 (CT26)	GI50 (HT-29)	GI50 (SW480)	GI50 (HCT-116)	inhibition [2]	IC50 [3]	Compound	GI50 at 48 h [1]
5.2 µM	8.1 µM	9.1 µM	9.5 µM	–	–	Nc1ccc(Oc2cccc(NC(=O)Nc3ccc(Cl)c(C(F)(F)F)c3)c2)cn1	10.2 µM
35.6 µM	> 100 µM	14 µM	> 100 µM	–	–	Nc1ccc(Oc2ccc(NC(=O)Nc3cccc(Br)c3)cc2)cn1	> 100 µM
20.9 µM	41.1 µM	30.7 µM	90.1 µM	–	–	O=C(Nc1ccc(Oc2cnc3[nH]ccc3c2)cc1)Nc1cccc(Cl)c1	–
6.9 µM	2.5 µM	10.4 µM	1.7 µM	–	–	Nc1ccc(Oc2cccc(NC(=O)Nc3cccc(C(F)(F)F)c3)c2)cn1	> 100 µM
8.3 µM	2.3 µM	1.4 µM	–	–	–	O=C(Nc1ccc(Oc2cnc3[nH]ccc3c2)cc1)Nc1ccc(Cl)c(C(F)(F)F)c1	–
25.5 µM	7.7 µM	12.8 µM	7.4 µM	–	–	Nc1ccc(Oc2cccc(NC(=O)Nc3ccc(F)c(C(F)(F)F)c3)c2)cn1	39.1 µM
32.4 µM	30.3 µM	29.2 µM	7.6 µM	–	–	Nc1ccc(Oc2cccc(NC(=O)Nc3ccc(Cl)c(Cl)c3)c2)cn1	> 100 µM
12.9 µM	3.4 µM	3.9 µM	15.7 µM	–	–	Nc1ccc(Oc2ccc(NC(=O)Nc3ccc(Cl)c(C(F)(F)F)c3)cc2)cn1	26.8 µM
11.3 µM	7.8 µM	10.4 µM	9.6 µM	79%	0.0385 µM	Cn1cc(-c2ccc(-c3cncc(Cl)c3N3CCC4(CCNC4=O)CC3)cc2)cn1	42.7 µM
23.5 µM	19.1 µM	17.9 µM	4 µM	–	–	Nc1ccc(Oc2cccc(NC(=O)Nc3ccc(F)c(Cl)c3)c2)cn1	31.3 µM
10.3 µM	16.7 µM	8.2 µM	43.6 µM	–	–	Nc1ccc(Sc2ccc(NC(=O)Nc3cccc(C(F)(F)F)c3)cc2)cn1	> 100 µM
8.7 µM	1.1 µM	2.5 µM	8 µM	–	–	O=C(Nc1cccc(Oc2cnc3[nH]ccc3c2)c1)Nc1cccc(C(F)(F)F)c1	40.7 µM
5.3 µM	2.1 µM	1.9 µM	–	–	–	O=C(Nc1ccc(Oc2cnc3[nH]ccc3c2)cc1)Nc1cccc(C(F)(F)F)c1	–
30.2 µM	25.6 µM	14.7 µM	19.8 µM	–	–	CNC(=O)c1cc(Oc2ccc(NC(=O)Nc3ccc(Cl)c(C(F)(F)F)c3)cc2)ccn1 [SORAFENIB]	28.9 µM
7.4 µM	8.5 µM	15.5 µM	11.2 µM	–	–	Nc1ccc(Oc2ccc(NC(=O)Nc3ccc(F)c(C(F)(F)F)c3)cc2)cn1	52.5 µM
42.7 µM	8.6 µM	18.4 µM	1.8 µM	–	–	CC(=O)Nc1ccc(Oc2ccc(NC(=O)Nc3cccc(C(F)(F)F)c3)cc2)cn1	28.2 µM
